# US12715849B2, “Herbicidal tetrazole compounds” (SYNGENTA CROP PROTECTION AG, priority 2020, dated 2026)
# Experiments:
# Assay in all cases: Glasshouse herbicidal test, pre- and post-emergence (Table B1)
# Format in all cases: in vivo
# [1] = system: Ablution theophrasti (ABUTH); conditions: 130 g/h, evaluated after 13 days; for percentage damage caused to the plant, PRE Application ABUTH: pre-emergence; for percentage damage caused to the plant, POST Application ABUTH: post-emergence
# Description: (§1) Seeds of a variety of test species are sown in standard soil in pots (Lolium perenne (LOLPE), Amaranthus retoflexus (AMARE), Amaranthus palmeri (AMAPA), Ablution theophrasti (ABUTH), Setaria faberi (SETFA), Echinochloa crus-galli (ECHCG), Ipomoea hederacea (IPOHE)). After cultivation for one day (pre-emergence) or after 8 days cultivation (post-emergence) under controlled conditions in a glasshouse (at 24/16° C., day/night; 14 hours light; 65% humidity), the plants are sprayed with an aqueous spray solution derived from the formulation of the technical active ingredient in acetone/water (50:50) solution containing 0.5% Tween 20 (polyoxyethelyene sorbitan monolaurate, CAS RN 9005-64-5). Compounds are applied at 130 g/h unless otherwise indicated. The test plants are then grown in a glasshouse under controlled conditions in a glasshouse (at 24/16° C., day/night; 14 hours light; 65% humidity) and watered twice daily. After 13 days for pre and post-emergence, the test is evaluated for the percentage damage caused to the plant. The biological activities are shown in the following table on a five-point scale (5=80-100%; 4=60-79%; 3=40-59%; 2=20-39%; 1=0-19%).
# [2] = system: Amaranthus retoflexus (AMARE); conditions: 130 g/h, evaluated after 13 days; for percentage damage caused to the plant, POST Application AMARE: post-emergence; for percentage damage caused to the plant, PRE Application AMARE: pre-emergence
# Description: as §1
# [3] = system: Echinochloa crus-galli (ECHCG); conditions: 130 g/h, evaluated after 13 days; for percentage damage caused to the plant, PRE Application ECHCG: pre-emergence; for percentage damage caused to the plant, POST Application ECHCG: post-emergence
# Description: as §1
# [4] = system: Ipomoea hederacea (IPOHE); conditions: 130 g/h, evaluated after 13 days; for percentage damage caused to the plant, POST Application IPOHE: post-emergence; for percentage damage caused to the plant, PRE Application IPOHE: pre-emergence
# Description: as §1
# Setaria faberi (SETFA) = conditions: 130 g/h, evaluated after 13 days; for percentage damage caused to the plant, POST Application SETFA: post-emergence; for percentage damage caused to the plant, PRE Application SETFA: pre-emergence
# Description: as §1
# [5] = system: Amaranthus palmeri (AMAPA); conditions: 130 g/h, evaluated after 13 days; for percentage damage caused to the plant, POST Application AMAPA: post-emergence; for percentage damage caused to the plant, PRE Application AMAPA: pre-emergence
# Description: as §1
Compound,"percentage damage caused to the plant, PRE Application ABUTH [1]","percentage damage caused to the plant, POST Application AMARE [2]","percentage damage caused to the plant, PRE Application AMARE [2]","percentage damage caused to the plant, PRE Application ECHCG [3]","percentage damage caused to the plant, POST Application IPOHE [4]","percentage damage caused to the plant, PRE Application IPOHE [4]","percentage damage caused to the plant, POST Application SETFA (Setaria faberi (SETFA))","percentage damage caused to the plant, PRE Application SETFA (Setaria faberi (SETFA))","percentage damage caused to the plant, POST Application ABUTH [1]","percentage damage caused to the plant, POST Application ECHCG [3]","percentage damage caused to the plant, POST Application AMAPA [5]","percentage damage caused to the plant, PRE Application AMAPA [5]"
Cn1nnnc1NC(=O)c1ccc(OC(F)F)c(NS(C)(=O)=O)c1Cl [Compound 1.065],5 (5=80-100%),5 (5=80-100%),5 (5=80-100%),4 (4=60-79%),4 (4=60-79%),2 (2=20-39%),5 (5=80-100%),3 (3=40-59%),,,,
CC(C)S(=O)(=O)Nc1c(OC(F)F)ccc(C(=O)Nc2nnnn2C)c1Cl [Compound 1.013],5 (5=80-100%),5 (5=80-100%),5 (5=80-100%),5 (5=80-100%),5 (5=80-100%),5 (5=80-100%),5 (5=80-100%),4 (4=60-79%),5 (5=80-100%),5 (5=80-100%),,
CCCS(=O)(=O)Nc1c(OC(F)F)ccc(C(=O)Nc2nnnn2C)c1Cl [Compound 1.069],,5 (5=80-100%),5 (5=80-100%),5 (5=80-100%),5 (5=80-100%),4 (4=60-79%),5 (5=80-100%),4 (4=60-79%),,5 (5=80-100%),5 (5=80-100%),5 (5=80-100%)
CCS(=O)(=O)N(C)c1c(OC(F)(F)F)ccc(C(=O)Nc2nnnn2C)c1Cl [Compound 1.080],,5 (5=80-100%),5 (5=80-100%),5 (5=80-100%),5 (5=80-100%),5 (5=80-100%),5 (5=80-100%),5 (5=80-100%),,5 (5=80-100%),5 (5=80-100%),5 (5=80-100%)
"CCn1nnnc1NC(=O)c1ccc(OC(F)(F)F)c(NS(=O)(=O)CC)c1Cl [Compound 1.002, 2-chloro-3-(ethylsulfonylamino)-N-(1-ethyltetrazol-5-yl)-4-(trifluoromethoxy)benzamide]",5 (5=80-100%),5 (5=80-100%),5 (5=80-100%),5 (5=80-100%),4 (4=60-79%),5 (5=80-100%),5 (5=80-100%),5 (5=80-100%),5 (5=80-100%),5 (5=80-100%),,
Cn1nnnc1NC(=O)c1ccc(OC(F)F)c(NS(=O)(=O)C2CC2)c1Cl [Compound 1.067],5 (5=80-100%),4 (4=60-79%),5 (5=80-100%),4 (4=60-79%),5 (5=80-100%),4 (4=60-79%),5 (5=80-100%),3 (3=40-59%),5 (5=80-100%),5 (5=80-100%),,
